Results on one compound are retold here after patent US20070203215A1, “Methods & Compositions For Enhancing Pharmaceutical Treatments” (Taiji Biomedical, Inc., priority 1999, published 2007).

One data set concerns CCD-986SK. As to the kind of experiment: Cell proliferation assay. It counts as cell-based. Conditions: Homo sapiens; Primary fibroblast CCD-986SK; read-out: Formula 2 compound IC50 (inhibition of growth). The protocol: (§1) Cell proliferation IC50s and MDR reversal EC50s were determined from 3-day dose-response curves carried out in triplicate in 96-well plates essentially as described by Monks et al. (J. Natl. Cancer Inst., 83:757-66, 1991). Cells were plated in standard growth medium at 2.5 or 5.0×10^4 per well (CCRF-CEM and CEM/VLB1000 respectively) or 5×10^3 per well (all other cell lines) in a final volume of 100 μl. After a 2 h incubation for non-adherent cells and overnight incubation for adherent cells, the initial cell density was determined by fluorescence readout of Alamar Blue metabolism. The compound of Formula 2, cytotoxic agents, or compound vehicles were added to duplicate plates and the incubation was continued for an additional 72 h. Final cell density was determined with Alamar Blue. In some experiments, a standard endpoint assay was used without analysis of initial cell density with Alamar Blue. Similar results were obtained with the two assays. EC50s were derived by nonlinear regression analysis assuming a sigmoidal dose-response using GraphPad Prism Software (San Diego, Calif.). Proliferation assays capable of measuring both cytostatic and cytotoxic responses were carried out as described herein with 15 non-transformed and transformed cell lines, including primary fibroblasts, non-transformed smooth muscle, leukemia, breast, colon, ovarian and uterine carcinoma cells (±P-gp expression). Although the compound of Formula 2 reversed P-gp-mediated MDR in the low nanomolar concentration range, the compound was non-cytotoxic by itself at doses up to 100 μM in all cell lines. […] IC50s for non-specific cytotoxicity were similar in matched cell lines plus and minus P-gp expression. […] If it were, some consistent degree of resistance would be expected in P-gp expressing cells.

A further data set has as its system SK/VLB1000. As to the kind of experiment: Cell proliferation assay. To be noted: Homo sapiens; Ovarian carcinoma SK/VLB1000, P-gp Pos; read-out: Formula 2 compound IC50 (inhibition of growth). It counts as cell-based. The protocol: as §1
The subject of another data set is MES-SA. As to the kind of experiment: Cell proliferation assay. Format: cell-based. To be noted: Homo sapiens; Uterine carcinoma MES-SA, P-gp Neg; read-out: Formula 2 compound IC50 (inhibition of growth). The protocol:
as §1

The next data set concerns MCF-7. As to the kind of experiment: Cell proliferation assay. Format: cell-based. Conditions: Homo sapiens, MCF7; Breast carcinoma MCF-7, P-gp Neg; read-out: Formula 2 compound IC50 (inhibition of growth). The protocol: as §1
Another data set concerns SW480. The data set can be described thus: Cell proliferation assay. It counts as cell-based. Conditions: Homo sapiens; Colorectal carcinoma SW480, P-gp Pos; read-out: Formula 2 compound IC50 (inhibition of growth). The method, then: as §1
A further data set relates to CEM. As to the kind of experiment: Cell proliferation assay. It counts as cell-based. Conditions: Homo sapiens, CCRF-CEM; Lymphoma CEM, P-gp Neg; read-out: Formula 2 compound IC50 (inhibition of growth). The method, then:
as §1

The next data set deals with HCT-15. The data set can be described thus: Cell proliferation assay. It counts as cell-based. To be noted: Homo sapiens; Colorectal carcinoma HCT-15, P-gp Pos; read-out: Formula 2 compound IC50 (inhibition of growth). The method, then: as §1
The nature of the next data set: Cell proliferation assay. It counts as cell-based. Conditions: human, MDA/LCC6^MDR1 breast carcinoma cells (P-gp positive); Breast carcinoma MDA/LCC6^MDR1, P-gp Pos; read-out: Formula 2 compound IC50 (inhibition of growth). The protocol: as §1
The next data set has as its system SKOV3. The data set can be described thus: Cell proliferation assay. It counts as cell-based. Conditions: Homo sapiens, SK-OV-3; Ovarian carcinoma SKOV3, P-gp Neg; read-out: Formula 2 compound IC50 (inhibition of growth). The protocol:
as §1

A further data set concerns HISM. As to the kind of experiment: Cell proliferation assay. Format: cell-based. Conditions: Homo sapiens; Smooth muscle HISM; read-out: Formula 2 compound IC50 (inhibition of growth). The protocol:
as §1

A further data set has as its system SW620. The data set can be described thus: Cell proliferation assay. Format: cell-based. Conditions: Homo sapiens, SW-620; Colorectal carcinoma SW620, P-gp Neg; read-out: Formula 2 compound IC50 (inhibition of growth). The protocol:
as §1

Another data set relates to MDA/LCC6. As to the kind of experiment: Cell proliferation assay. Format: cell-based. Conditions: Homo sapiens, LCC-6; Breast carcinoma MDA/LCC6, P-gp Neg; read-out: Formula 2 compound IC50 (inhibition of growth). The protocol:
as §1

The test system of the next data set is MCF-7/ADR. The data set can be described thus: Cell proliferation assay. Format: cell-based. To be noted: Homo sapiens, NCI/ADR-RES; Breast carcinoma MCF-7/ADR, P-gp Pos; read-out: Formula 2 compound IC50 (inhibition of growth). The protocol:
as §1

Another data set deals with MDA/LCC6^MDR1 tumors. As to the kind of experiment: In vivo antitumor efficacy, orthotopic MDA/LCC6^MDR1 tumors. Set-up: species or system SCID/RAG2 mice. The method, then: Anti-tumor efficacy experiments with orthotopic MDA/LCC6 and MDA/LCC6^MDR1 tumors were conducted in female SCID/RAG2 mice. Ascites propagated cells (2×10^6 in 50 μl) were injected into mammary fat pads bilaterally on day 0 before randomization into groups of 5 mice per group. Paclitaxel (12 mg/kg/dose) was administered QD i.v. (tail vein) in 200 μl saline/Cremophor/ethanol (8/1/1 by volume) on days 5, 12, 19, and 26. The compound of Formula 2-free base (30 mg/kg/dose) was administered BID p.o. by gavage in 100 μl PEG 400/Tween 20 (9/1 by volume) on days 4-6, 11-13, 18-20, and 25-27. Mean body weights were recorded at least every other day. Tumor weight was monitored approximately every other day by caliper measurements and calculated according to the formula (Tumor weight =(length×width^2)÷2). This conversion formula was verified by comparing the calculation derived tumor weights to excised and weighed tumors. Animals bearing ulcerated tumors or where tumor weight exceeded 10% of the animal's body weight were terminated. The weights of the bilateral tumors were averaged for each mouse and mean tumor weights for each treatment group±standard error of the mean were calculated. Statistical analysis was carried out by Mann-Whitney test using GraphPad Prism software (San Diego, Calif.).
The compound of Formula 2 was administered the afternoon before, 2 hours before and 6 hours after each paclitaxel dose. The ability of orally administered Formula 2 compound to reverse MDR in solid tumors in vivo was assessed with the MDA/LCC6^MDR1 model. Because the compound of Formula 2 produced no effect on paditaxel blood levels, focus on up-front therapy (for naive animals) or minimal residual disease models was maintained, as opposed to established tumors. MDA/LCC6^MDR1 cells that express P-gp were resistant to paclitaxel treatment in vitro and this resistance was reversed by the compound of Formula 2 (FIG. 1). […] Similar results were obtained in three independent experiments with two different strains of immunocompromised mice (SCID/RAG-2 and athymic). […]

The term IC50 denotes the concentration that gives 50% inhibition. With `CCOC/C=C/c1ccc(-c2nc(-c3ccc(NC(C)C)cc3)c(-c3ccc(NC(C)C)cc3)[nH]2)cc1` [Formula 2 compound], the half-inhibitory concentration (IC50) in the data set on CCD-986SK is greater than 100 µM; with SK/VLB1000, 15 µM; with MES-SA, 51 µM; with MCF-7, 30 µM; with SW480, greater than 100 µM; with CEM it was 38 µM. The 50% inhibitory concentration (IC50) was 6 µM in the data set on HCT-15; 48 µM in the data set with SKOV3; greater than 100 µM with HISM; greater than 100 µM with SW620; greater than 100 µM with MDA/LCC6; 68 µM in the data set on MCF-7/ADR. Also, in “Cell proliferation assay”, the concentration for half-maximal inhibition (IC50) at 72 h is greater than 100 µM. Moreover, the “In vivo tumor growth” value in the data set with MDA/LCC6^MDR1 tumors (Formula 2 compound and paclitaxel combined, persisted at least two weeks after last paclitaxel dose) was “statistically significant inhibition of tumor growth”. Further, in the data set with MDA/LCC6^MDR1 tumors (single agent alone, paclitaxel 12 mg/kg i.v., Formula 2 free base 30 mg/kg p.o.), the “In vivo tumor growth compared to the vehicle control” value is “no significant effect”.
